Among the data in patent US20060241172A1, “Benzodioxane and benzodioxolane derivatives and uses thereof” (Wyeth, priority 2005, published 2006) are melting point values, retold here.

Counter-ions that a name gives are not always drawn.

On to `CCNCC1Oc2cc(F)cc(-c3ccccc3Cl)c2O1` (stereo not drawn) (as salt: hydrochloride) [Compound I-88, N-{[4-(2-Chlorophenyl)-6-fluoro-1,3-benzodioxol-2-yl]methyl}ethanamine], for which the melting point is 182 to 183 °C.

Consider `NCC1Oc2cc(F)cc(-c3ccccc3)c2O1` (stereo not drawn) (as salt: hydrochloride) [Compound I-77, 1-(6-Fluoro-4-phenyl-1,3-benzodioxol-2-yl)methanamine], for which the melting point lay within 227 to 229 °C.

Consider `NC[C@H]1COc2ccc(F)c(-c3ccc(Cl)cc3Cl)c2O1` (as salt: hydrochloride) [Compound I-75, ((2S)-7-Fluoro-8-(2,4-di-chloro-phenyl)-2,3-dihydrobenzo[b][1,4]dioxin-2-yl) methanamine], for which the melting point turned out to be 65 °C.

`COc1cccc(-c2cc(Cl)cc3c2O[C@@H](CN)CO3)c1OC` (as salt: hydrochloride) [Compound I-63, (2S)-[6-Chloro-8-(2,3-dimethoxy-phenyl)-2,3-dihydro-benzo[1,4]dioxin-2-yl]-methyl amine] registered a melting point of 197 to 199 °C.

On to `NCC1Oc2cc(Cl)cc(-c3ccccc3-c3ccccc3)c2O1` (stereo not drawn) (as salt: hydrochloride) [Compound I-101, [6-Chloro-4-biphenyl-benzo[1,3]dioxol-2-yl]-methylamine], for which the melting point lay in the range of 196 to 198 °C.

`Cc1ccccc1-c1cccc2c1OC(CN)CO2` (stereo not drawn) (as salt: fumarate) [Compound I-3, {[8-(2-Methylphenyl)-2,3-dihydro-1,4-benzodioxin-2-yl]methyl}amine]: the melting point fell in the range of 201 to 202 °C.

`Cc1cccc(-c2cccc3c2OC(CN)CO3)c1C` (stereo not drawn) (as salt: fumarate) [Compound I-10, {[8-(2,3-Dimethylphenyl)-2,3-dihydro-1,4-benzodioxin-2-yl]methyl}amine]: the melting point lay within 204 to 205 °C.

The molecule `Cc1cccc(C)c1-c1cc(Cl)cc2c1O[C@@H](CN)CO2` (as salt: hydrochloride) [Compound I-69, (2S)-[6-Chloro-8-(2,6-dimethyl-phenyl)-2,3-dihydro-benzo[1,4]dioxin-2-yl]-methyl amine] registered a melting point of 220 to 222 °C.

As to `COc1ccccc1-c1cc(Cl)cc2c1O[C@@H](CN)CO2` (as salt: hydrochloride) [Compound I-61, (2S)-[6-Chloro-8-(2-methoxy-phenyl)-2,3-dihydro-benzo[1,4]dioxin-2-yl]-methylamine], the melting point was 188 to 189 °C.

`CNCC1COc2cccc(-c3ccccc3OC)c2O1` (stereo not drawn) (as salt: fumarate) [Compound I-19, {[8-(2-Methoxyphenyl)-2,3-dihydro-1,4-benzodioxin-2-yl]methyl}methylamine] showed a melting point of 168 to 169 °C.

Take `NC[C@H]1COc2cc(Cl)cc(-c3cc(Cl)ccc3Cl)c2O1` (as salt: hydrochloride) [Compound I-67, (2S)-[6-Chloro-8-(2,5-dichloro-phenyl)-2,3-dihydro-benzo[1,4]dioxin-2-yl]-methyl amine]: the melting point fell in the range of 205 to 207 °C.

`Cc1ccc(C)c(-c2cccc3c2OC(CN)CO3)c1` (stereo not drawn) (as salt: fumarate) [Compound I-11, {[8-(2,5-Dimethylphenyl)-2,3-dihydro-1,4-benzodioxin-2-yl]methyl}amine] yielded a melting point of 199 to 200 °C.

`CN(C)CC1COc2cccc(-c3ccc(Cl)cc3Cl)c2O1` (stereo not drawn) (as salt: fumarate) [Compound I-39, {[8-(2,4-Dichlorophenyl)-2,3-dihydro-1,4-benzodioxin-2-yl]methyl}dimethylamine]: the melting point was 232 to 233 °C.

`CCNCC1COc2cccc(-c3ccc(Cl)cc3Cl)c2O1` (stereo not drawn) (as salt: fumarate) [Compound I-33, N-{[8-(2,4-Dichlorophenyl)-2,3-dihydro-1,4-benzodioxin-2-yl]methyl}ethanamine] registered a melting point of 179 to 180 °C.

The molecule `CNCC1COc2cccc(-c3ccc(F)cc3F)c2O1` (stereo not drawn) (as salt: fumarate) [Compound I-28, {[8-(2,4-Difluorophenyl)-2,3-dihydro-1,4-benzodioxin-2-yl]methyl}methylamine] showed a melting point of 174 to 175 °C.

`Cc1cc(Cl)ccc1-c1cc(Cl)cc2c1OC(CN)O2` (stereo not drawn) (as salt: hydrochloride) [Compound I-97, [6-Chloro-4-(4-chloro-2-methyl-phenyl)-benzo[1,3]dioxol-2-yl]-methylamine] displayed a melting point of more than 250 °C.

Consider `NCC1COc2cccc(-c3ccccc3Cl)c2O1` (stereo not drawn) (as salt: fumarate) [Compound I-1, {[8-(2-Chlorophenyl)-2,3-dihydro-1,4-benzodioxin-2-yl]methyl}amine], for which the melting point was 210 to 211 °C.

Molecule `CCCNCC1COc2cccc(-c3ccc(Cl)cc3Cl)c2O1` (stereo not drawn) (as salt: fumarate) [Compound I-35, N-{[8-(2,4-Dichlorophenyl)-2,3-dihydro-1,4-benzodioxin-2-yl]methyl}propan-1-amine] had a melting point of 178 to 179 °C.

In the case of `NCC1Oc2cc(F)cc(-c3ccccc3F)c2O1` (stereo not drawn) (as salt: hydrochloride) [Compound I-83, 1-[4-(2-Fluoro-phenyl)-6-fluoro-1,3-benzodioxol-2-yl]methanamine], the melting point was 234 to 235 °C.

The molecule `NCC1Oc2cc(Cl)cc(-c3ccccc3Cl)c2O1` (stereo not drawn) (as salt: hydrochloride) [Compound I-90, [6-Chloro-4-(2-chloro-phenyl)-benzo[1,3]dioxol-2-yl]-methylamine] displayed a melting point of more than 250 °C.

As for `NC[C@H]1COc2cccc(-c3ccccc3Cl)c2O1` (as salt: fumarate) [Compound I-56, 1-[(2S)-8-(2-CHLOROPHENYL)-2,3-DIHYDRO-1,4-BENZODIOXIN-2-YL]METHANAMINE], the melting point was in the range of 200 to 201 °C.

In the case of `NCC1COc2cccc(-c3ccc(Cl)cc3Cl)c2O1` (stereo not drawn) (as salt: fumarate) [Compound I-7, {[8-(2,4-Dichlorophenyl)-2,3-dihydro-1,4-benzodioxin-2-yl]methyl}amine], the melting point lay in the range of 192 to 193 °C.

In turn, `Cc1cccc(C)c1-c1cccc2c1OC(CN)CO2` (stereo not drawn) (as salt: fumarate) [Compound I-12, {[8-(2,6-Dimethylphenyl)-2,3-dihydro-1,4-benzodioxin-2-yl]methyl}amine] came in with a melting point of 205 to 206 °C.

In turn, `NCC1Oc2cc(Cl)cc(-c3ccc(Cl)cc3Cl)c2O1` (stereo not drawn) (as salt: hydrochloride) [Compound I-96, [6-Chloro-4-(2,4-dichloro-phenyl)-benzo[1,3]dioxol-2-yl]-methylamine] yielded a melting point of more than 250 °C.

In turn, `Cc1ccccc1-c1cc(Cl)cc2c1OC(CN)O2` (stereo not drawn) (as salt: hydrochloride) [Compound I-91, [6-Chloro-4-(2-methyl-phenyl)-benzo[1,3]dioxol-2-yl]-methylamine] registered a melting point of more than 250 °C.

`CC(C)NCC1COc2cccc(-c3ccccc3Cl)c2O1` (stereo not drawn) (as salt: fumarate) [Compound I-36, N-{[8-(2-Chlorophenyl)-2,3-dihydro-1,4-benzodioxin-2-yl]methyl}propan-2-amine]: the melting point is 199 to 200 °C.

The molecule `CNCC1COc2cccc(-c3ccccc3C(F)(F)F)c2O1` (stereo not drawn) (as salt: fumarate) [Compound I-20, N-Methyl-1-{8-[2-(trifluoromethyl)phenyl]-2,3-dihydro-1,4-benzodioxin-2-yl}methanamine] displayed a melting point of 184 to 185 °C.
